Read-outs that look alike come from different tables or passages of the source.
How the values were obtained:
[1] = Thermal stability of goat milk proteins during pasteurization (90 °C, 15 s); format: physicochemical; details: doses up to 20 mg Ca per 100 g of milk
Protocol: (§1) Doses of calcium (5, 10, 15, and 20 mg Ca 100 g^−1 milk), based on the calcium compound’s molecular weight, were added to 100 g of raw goat’s milk in the form of chloride, gluconate, lactate, and carbonate and tested to determine the pH value and thermal stability of milk. A control sample (0 mg Ca 100 g^−1 milk) was also prepared. The samples were heated in a water bath to 25 °C, mixed, and pasteurized (90 °C, 15 s). In the cooled (25 °C) samples of control milk and milk with calcium addition, the pH value was determined using a FiveEasy pH meter with an electrode InLab® Solids Pro-ISM (Mettler Toledo, Greifensee, Switzerland).

[2] = pH value of goat's milk after pasteurization with added calcium compound; format: physicochemical
Protocol: as §1

[3] = pH of fresh acid rennet cheese; format: physicochemical, goat
Protocol: Fresh acid rennet cheese was produced following the methodology by Pawlos et al. (Scheme 1). The caprine milk was divided into batches, each containing 2000 g of milk, heated to 25 °C, and treated with varying amounts and dosages of calcium compound. The control sample (0 mg Ca per 100 g of milk) and milk with calcium addition (5, 10, 15, 20 mg Ca per 100 g of milk) were pasteurized in a water bath at 90 °C for 15 s. Subsequently, the milk was cooled to 28 °C, and each batch was inoculated with 0.20% (w/w) of starter culture for 15 min before adding 0.02% (v/w) of rennet. […] Acid rennet curds were then cut into 15 × 15 × 15 mm cubes and heated in a water bath at 35 °C for 1.5 h. Following this, the temperature was increased to 40 °C for 0.5 h. The whey was separated using cheesecloth, and the curds were transferred to molds, pressed (10 N kg^−1, 0.5 h) using a pneumatic cylinder press (Pneumatig, Gdynia, Poland), and refrigerated in labeled individual plastic containers at 4 °C for 24 h prior to analysis. All physicochemical analyses were conducted on ground cheese samples.
A pH meter (FiveEasy Mettler Toledo, Greifensee, Switzerland) and an electrode InLab® Solids Pro-ISM (Mettler Toledo, Greifensee, Switzerland) were used to determine the pH value in cheese.

[4] = Texture profile analysis (TPA) of cheese; format: physicochemical, goat
Protocol: Fresh acid rennet cheese was produced following the methodology by Pawlos et al. (Scheme 1). The caprine milk was divided into batches, each containing 2000 g of milk, heated to 25 °C, and treated with varying amounts and dosages of calcium compound. The control sample (0 mg Ca per 100 g of milk) and milk with calcium addition (5, 10, 15, 20 mg Ca per 100 g of milk) were pasteurized in a water bath at 90 °C for 15 s. Subsequently, the milk was cooled to 28 °C, and each batch was inoculated with 0.20% (w/w) of starter culture for 15 min before adding 0.02% (v/w) of rennet. The mixture was stirred and incubated at 28 °C until the pH reached 4.60 (±0.50) in a Cooled Incubator ILW 115 (POL-EKO Aparatura, Wodzisław Śląski, Poland). Acid rennet curds were then cut into 15 × 15 × 15 mm cubes and heated in a water bath at 35 °C for 1.5 h. Following this, the temperature was increased to 40 °C for 0.5 h. The whey was separated using cheesecloth, and the curds were transferred to molds, pressed (10 N kg^−1, 0.5 h) using a pneumatic cylinder press (Pneumatig, Gdynia, Poland), and refrigerated in labeled individual plastic containers at 4 °C for 24 h prior to analysis. All physicochemical analyses were conducted on ground cheese samples.
The texture profile analysis test (TPA) was performed with a CT3 Texture Analyzer and Texture Pro CT 1.2 software (Brookfield AMETEK, Middleboro, MA, USA). Before testing, cheese samples were cut (20 × 20 × 20 mm) and kept at a temperature of 10 °C ± 1 °C. Compression test was performed using a plastic plunger type TA3/100 (25.4 mm diameter) and configured with the following parameters: distance 15 mm, measurement speed 5 mm s^−1, contact load 1.00 N, and hold time 1 s. The TPA test was applied to measure cheese hardness (N), adhesiveness (mJ), cohesiveness, and springiness (mm).

[5] = design: method as in doi:10.21608/jfds.2019.54698; details: cited from earlier work
[6] = design: method as in doi:10.1111/j.1471-0307.2010.00613.x; details: 30 mM calcium added before heating; cited from earlier work

In the case of `O=C([O-])[O-].[Ca+2]` [Carbonate, calcium carbonate], the “thermal stability of milk during pasteurization” value (from here on “thermal stability”) [1] is reported as “not reduced”, the “increase of milk pH value compared to the control sample” value [2] is reported as 0.11 and the “cheese pH value higher than the control cheese” value [3] is reported as 0.19.
For `[Ca+2].[Cl-].[Cl-]` [Chloride, Calcium chloride], the Springiness ([4]; 5 mg Ca 100 g^−1 of milk) was 1.27 mm, the “thermal stability” value [1] was “not reduced” and the “reduction of milk pH value compared to the control sample” value ([2]; greatest reduction) was 0.23. For the same compound, the “reduction of milk pH” value ([2]; lowest dose of calcium, 5 mg 100 g^−1) was 0.17, the “pH of Karish cheese” value ([5]; 200 mg 100 mL^−1 added to milk) was 4.69 and the “pH of Karish cheese” value ([5]; 300 mg 100 mL^−1 added to milk) was 4.50. For the same compound, the “reduction of pH of cow's milk” value [6] was “up to 0.64”.
With `O=C([O-])[C@H](O)[C@@H](O)[C@H](O)[C@H](O)CO.O=C([O-])[C@H](O)[C@@H](O)[C@H](O)[C@H](O)CO.[Ca+2]` [Gluconate, calcium gluconate] the Cohesiveness ([4]; 15 mg Ca 100 g^−1 of milk) was 0.30, the Springiness ([4]; 15 mg Ca 100 g^−1 of milk) was 3.94 mm and the “thermal stability” value [1] was “not reduced”. The pH ([3]; cheese, 20 mg Ca 100 g^−1 of milk) was 4.61.
With `CC(O)C(=O)[O-].CC(O)C(=O)[O-].[Ca+2]` (stereo not drawn) [Lactate, calcium lactate] the “thermal stability” value [1] was “not reduced”.
